Results taken from ChEMBL document CHEMBL1147960, “Spectroscopic studies of DNA binding modes of cation-substituted anthrapyrazoles derived from emodin” (Eur J Med Chem, 2007).

Tested on: B16
Test: Cytotoxicity against mouse B16 cells
Type: functional, cell-based
Conditions: not given

Compound	IC50 [µM]
CCN(CC)CCn1nc2c3c(cc(C)cc31)C(=O)c1cc(OC)cc(OC)c1-2	3.6
CCN(CC)CCNCCn1nc2c3c(cc(C)cc31)C(=O)c1cc(OC)cc(OC)c1-2	10.1
COc1cc(OC)c2c(c1)C(=O)c1cc(C)cc3c1c-2nn3CCN1CCN(C)CC1	20.1
Cc1cc(O)c2c(c1)C(=O)c1cc(O)cc(O)c1C2=O [EMODIN]	> 100

Tested on: DNA
Test: Binding affinity to calf thymus DNA
Type: nucleic-acid assay, Bos taurus
Conditions: not given

Compound	Kb [M⁻¹]
CCN(CC)CCn1nc2c3c(cc(C)cc31)C(=O)c1cc(OC)cc(OC)c1-2	552000
CCN(CC)CCNCCn1nc2c3c(cc(C)cc31)C(=O)c1cc(OC)cc(OC)c1-2	253000
COc1cc(OC)c2c(c1)C(=O)c1cc(C)cc3c1c-2nn3CCN1CCN(C)CC1	698000
Cc1cc(O)c2c(c1)C(=O)c1cc(O)cc(O)c1C2=O [EMODIN]	68000

Tested on: not listed separately
Test: Cytotoxicity against mouse LLC cells
Type: functional, cell-based
Conditions: Lewis lung carcinoma

Compound	IC50 [µM]
CCN(CC)CCn1nc2c3c(cc(C)cc31)C(=O)c1cc(OC)cc(OC)c1-2	4.5
CCN(CC)CCNCCn1nc2c3c(cc(C)cc31)C(=O)c1cc(OC)cc(OC)c1-2	12.8
COc1cc(OC)c2c(c1)C(=O)c1cc(C)cc3c1c-2nn3CCN1CCN(C)CC1	8.9
Cc1cc(O)c2c(c1)C(=O)c1cc(O)cc(O)c1C2=O [EMODIN]	> 100

Tested on: HepG2
Test: Cytotoxicity against human HepG2 cells
Type: functional, cell-based
Conditions: not given

Compound	IC50 [µM]
CCN(CC)CCn1nc2c3c(cc(C)cc31)C(=O)c1cc(OC)cc(OC)c1-2	4.9
CCN(CC)CCNCCn1nc2c3c(cc(C)cc31)C(=O)c1cc(OC)cc(OC)c1-2	37.6
COc1cc(OC)c2c(c1)C(=O)c1cc(C)cc3c1c-2nn3CCN1CCN(C)CC1	7.2
Cc1cc(O)c2c(c1)C(=O)c1cc(O)cc(O)c1C2=O [EMODIN]	55.1
